Results taken from US20210230203A1, “Amphiphilic Kanamycin Compositions and Methods” (priority 2020, published 2021).
≈ marks a conversion by molar mass, not a printed value. Like-named read-outs stand apart in the source and are kept apart here.

Key:
[1] = system: Cryptococcus neoformans H99; test: MIC against fungal strains (Table 1); type: cell-based; details: Cryptococcus neoformans H99
[2] = system: Fusarium graminearum B4-5A; test: microbe, parasite or virus in culture; type: cell-based; details: Fusarium graminearum B4-5A
[3] = system: Candida albicans MYA2876; test: MIC against fungal strains (Table 1); type: cell-based; details: Candida albicans MYA2876
[4] = system: Candida albicans 64124; test: MIC against fungal strains (Table 1); type: cell-based
[5] = system: E. coli (25922); test: MIC against bacterial strains; type: cell-based
[6] = system: S. aureus (ATCC 25923); test: MIC against bacterial strains; type: cell-based
[7] = system: Rhodotorula pilimanae; test: MIC against fungal strains (Table 1); type: cell-based
[8] = system: S. aureus (ATCC 33591) MRSA; type: cell-based
[9] = system: S. aureus (ATCC 43300) MRSA; type: cell-based
[10] = system: Apaphysomyces; test: MIC against various species, CLSI M27 & M38 (Table 4); type: cell-based, Apophysomyces; details: 24-72 hours, read-out: Minimum inhibitory concentration 100%
[11] = system: P. variotil; test: as above; type: cell-based, Paecilomyces variotii; details: Paecilomyces variotii, P. variotil QC, RPMI 0.165M MOPS, 24-72 hours, read-out: Minimum inhibitory concentration 100%
[12] = system: Rhizopus arrhizus; test: MIC against filamentous and dimorphic fungi, CLSI M27 & M38 (Table 3); type: cell-based; details: Rhizopus arrhizus, 24-72 hours, read-out: Minimum inhibitory concentration 100%
[13] = system: Saksenaea sp.; test: as above; type: cell-based, Saksenaea species; details: 24-72 hours, read-out: Minimum inhibitory concentration 100%
[14] = system: P. variatii; test: as above; type: cell-based, Paecilomyces variotii; details: Paecilomyces variotii, P. variatii MYA-3630, RPMI 0.165M MOPS, 24-72 hours, read-out: Minimum inhibitory concentration 100%

## CCCCCCCC(=O)NCC1O[C@H](OC2C(N)CC(N)C(OC3O[C@H](CO)C(O)C(N)[C@H]3O)[C@H]2O)C(O)C(O)[C@@H]1O (stereo partly drawn) [KI02]
[1]
  Minimum inhibitory concentration: >256 mg/L
[2]
  Minimum inhibitory concentration: >256 mg/L
[3]
  Minimum inhibitory concentration: >256 mg/L
[4]
  Minimum inhibitory concentration: >256 mg/L
[5]
  Minimum inhibitory concentration: >256 mg/L
[6]
  Minimum inhibitory concentration: >256 mg/L
[7]
  Minimum inhibitory concentration: >256 mg/L

## CCCCCCCCCCCC(=O)NC[C@H]1O[C@H](O[C@H]2[C@H](O)[C@@H](O[C@H]3O[C@H](CO)[C@@H](O)[C@H](N)[C@H]3O)[C@H](N)C[C@@H]2N)[C@H](O)[C@@H](O)[C@@H]1O [KI04]
[1]
  Minimum inhibitory concentration: 8 mg/L (≈ 12 µM)
[2]
  Minimum inhibitory concentration: 16 mg/L (≈ 24 µM)
[3]
  Minimum inhibitory concentration: 32 mg/L (≈ 48 µM)
[4]
  Minimum inhibitory concentration: 32 mg/L (≈ 48 µM)
[5]
  Minimum inhibitory concentration: 32 mg/L (≈ 48 µM)
[6]
  Minimum inhibitory concentration: 32 mg/L (≈ 48 µM)
[7]
  Minimum inhibitory concentration: 16 mg/L (≈ 24 µM)
[8]
  Minimum inhibitory concentration: 128 mg/L (≈ 192 µM)
[9]
  Minimum inhibitory concentration: 128 mg/L (≈ 192 µM)

## CCCCCCCCCCCCCC(=O)NCC1O[C@H](OC2C(N)CC(N)C(OC3O[C@H](CO)C(O)C(N)[C@H]3O)[C@H]2O)C(O)C(O)[C@@H]1O (stereo partly drawn) [KI05]
[1]
  Minimum inhibitory concentration: 4 mg/L (≈ 5.76 µM)
[2]
  Minimum inhibitory concentration: 8 mg/L (≈ 11.5 µM)
[3]
  Minimum inhibitory concentration: 16 mg/L (≈ 23 µM)
[4]
  Minimum inhibitory concentration: 16 mg/L (≈ 23 µM)
[5]
  Minimum inhibitory concentration: 64 mg/L (≈ 92.1 µM)
[6]
  Minimum inhibitory concentration: 16 mg/L (≈ 23 µM)
[7]
  Minimum inhibitory concentration: 4 mg/L (≈ 5.76 µM)
[8]
  Minimum inhibitory concentration: 32 mg/L (≈ 46.1 µM)
[9]
  Minimum inhibitory concentration: 32 mg/L (≈ 46.1 µM)

## N[C@@H]1[C@@H](O)[C@@H](O[C@@H]2[C@@H](O)[C@H](O[C@H]3O[C@H](CNC(=O)c4cc(-c5ccccc5)nc5ccccc45)[C@@H](O)[C@H](O)[C@H]3O)[C@@H](N)C[C@H]2N)O[C@H](CO)[C@H]1O [KI08]
[1]
  Minimum inhibitory concentration: 128 mg/L (≈ 179 µM)
[2]
  Minimum inhibitory concentration: >256 mg/L
[3]
  Minimum inhibitory concentration: >256 mg/L
[4]
  Minimum inhibitory concentration: >256 mg/L
[5]
  Minimum inhibitory concentration: >256 mg/L
[6]
  Minimum inhibitory concentration: >256 mg/L
[7]
  Minimum inhibitory concentration: 256 mg/L (≈ 358 µM)

## NC1CC(N)C(O[C@H]2OC(CNC(=O)CCCc3ccc4ccc5cccc6ccc3c4c56)[C@@H](O)C(O)C2O)[C@H](O)C1OC1O[C@H](CO)C(O)C(N)[C@H]1O (stereo partly drawn) [KI09]
[1]
  Minimum inhibitory concentration: 16 mg/L (≈ 21.2 µM)
[2]
  Minimum inhibitory concentration: 16 mg/L (≈ 21.2 µM)
[3]
  Minimum inhibitory concentration: 16 mg/L (≈ 21.2 µM)
[4]
  Minimum inhibitory concentration: 16 mg/L (≈ 21.2 µM)
[5]
  Minimum inhibitory concentration: 128 mg/L (≈ 170 µM)
[6]
  Minimum inhibitory concentration: 32 mg/L (≈ 42.4 µM)
[7]
  Minimum inhibitory concentration: 16 mg/L (≈ 21.2 µM)
[8]
  Minimum inhibitory concentration: 128 mg/L (≈ 170 µM)
[9]
  Minimum inhibitory concentration: 32 mg/L (≈ 42.4 µM)

## CC[C@@H]([C@H](C)O)n1ncn(-c2ccc(N3CCN(c4ccc(OC[C@@H]5CO[C@@](Cn6cncn6)(c6ccc(F)cc6F)C5)cc4)CC3)cc2)c1=O [Posaconazole, reference compound]
[10]; Apaphysomyces APO1, RPMI 0.165M MOPS
  MIC: 0.125 mg/L (≈ 0.178 µM)
[10]; Apaphysomyces APO2, RPMI 0.165M MOPS
  MIC: 0.125 mg/L (≈ 0.178 µM)
[10]; Apaphysomyces APO3, RPMI 0.165M MOPS
  MIC: 0.25 mg/L (≈ 0.357 µM)
[11]
  MIC: ≤ 0.03 mg/L
[12]; Rhizopus arrhizus 99-880, RPMI 0.165M MOPS
  MIC: 1 mg/L (≈ 1.43 µM)
[12]; Rhizopus arrhizus 99-892, RPMI 0.165M MOPS
  MIC: 0.25 mg/L (≈ 0.357 µM)
[12]; Rhizopus arrhizus RA1, RPMI 0.165M MOPS
  MIC: 0.25 mg/L (≈ 0.357 µM)
[13]; Saksenaea sp. SK1, RPMI 0.165M MOPS
  MIC: ≤ 0.03 mg/L
[13]; Saksenaea sp. SK2, RPMI 0.165M MOPS
  MIC: ≤ 0.03 mg/L
[13]; Saksenaea sp. SK3, RPMI 0.165M MOPS
  MIC: 0.125 mg/L (≈ 0.178 µM)
[14]
  MIC: ≤ 0.03 mg/L

## Neomycin [reference compound]
[5]
  Minimum inhibitory concentration: 2 mg/L
[6]
  Minimum inhibitory concentration: 2 mg/L
